Source: patent US20030113268A1, “Degradation-resistant glucocorticosteroid formulations” (priority 2000, published 2003)

Assay: Comparison of radical quenchers: impurities on storage at 40° C. and 75% relative humidity, uncoated canisters
Assay type: physicochemical
Details: for effectiveness in reducing degradation of the budesonide formulations: Tables X-XII, 40° C./75% relative humidity
Excerpt: To compare the effectiveness of various radical quenchers in preventing degradation of budesonide formulations, formulations containing budesonide, HFA-134a, ethanol, and a radical quencher were made in uncoated canisters using the steps described in Example I. The compositions of the formulations are shown in Table IX. Formulations were made containing each radical quencher with and without 3% aqueous hydrogen peroxide. The hydrogen peroxide was included in some formulations to challenge the radical quencher.
The initial impurities in each formulation were measured, and the formulations were stored at 40° C. and 75% relative humidity. Impurities were measured again after 4 weeks and after 3 months. For selected formulations, impurities were also measured after 11 months.

effectiveness in reducing degradation of the budesonide formulations	physical stability of formulations including the radical quencher (clumping) (budesonide/ethanol/HFA-134a formulations)	Molecule
very effective	tended to form clumps of solid matter	CCCCCCCCCCCCCCCC(=O)OC[C@H](O)[C@H]1OC(=O)C(O)=C1O [ascorbyl palmitate]
effectively reduced degradation	–	Vitamin E

Molecule	effectiveness in reducing degradation of the budesonide formulations	physical stability of formulations including the radical quencher (clumping) (budesonide/ethanol/HFA-134a formulations)
COc1ccc(O)c(C(C)(C)C)c1 [butylated hydroxyanisole (BHA), butylated hydroxyanisole]	very effective	–
